19 molecules from ChEMBL document CHEMBL4340502, “Anti-biofilm and anti-adherence properties of novel cyclic dipeptides against oral pathogens” (Bioorg Med Chem, 2019) can be followed below.

The source made the active and inactive calls. How the calls were made is not given here.

The first series concerns Fusobacterium nucleatum. Kind of series: Antibiofilm activity against Fusobacterium nucleatum ATCC 25586 assessed as inhibition of biofilm formation up to 96 ug/mL after 24 hrs by crystal violet staining based assay. Format: functional, organism-based.
Regarding `CC(C)[C@@H]1NC(=O)[C@@H](Cc2ccc(OCc3ccccc3)cc2)NC1=O`, the inhibition result was “inactive”.
Take `NCCCC[C@@H]1NC(=O)[C@H](Cc2ccccc2)NC1=O`: the inhibition result was “inactive”.
On to `C[C@@H](OCc1ccccc1)[C@@H]1NC(=O)[C@H]([C@@H](C)OCc2ccccc2)NC1=O`, for which the inhibition result is “inactive”.
As for `CC(C)C[C@@H]1NC(=O)[C@H](Cc2ccc(OCc3ccccc3)cc2)NC1=O`, the inhibition result is “inactive”.
Still for that read-out and setting: under `O=C1N[C@H](COCc2ccccc2)C(=O)N[C@@H]1COCc1ccccc1` stands “inactive”.
Still for that read-out and setting: the value for `O=C1CNC(=O)[C@H](Cc2ccccc2)N1` was “inactive”; that for `O=C1CNC(=O)[C@H](CCC(=O)OCc2ccccc2)N1` was “inactive”; that for `O=C(NCCCC[C@@H]1NC(=O)[C@H](Cc2ccccc2)NC1=O)OCc1ccccc1` was “inactive”.
Still for that read-out and setting: under `CC(C)C[C@H]1NC(=O)[C@H](C(C)C)NC1=O` stands “inactive”; under `O=C1[C@@H]2CCCN2C(=O)[C@H]2CCCN12`, “inactive”.
On to `O=C1N[C@H](Cc2ccccc2)C(=O)N[C@H]1COCc1ccccc1`, for which the inhibition result was “inactive”.
Consider `CC(C)C[C@@H]1NC(=O)[C@@H](CC(C)C)NC1=O`, for which the inhibition entry was “inactive”.
For the molecule `CC(C)C[C@@H]1NC(=O)[C@H](Cc2ccc([N+](=O)[O-])cc2)NC1=O`, the inhibition entry was “inactive”.
Regarding `C[C@@H]1NC(=O)[C@H](Cc2ccc(OCc3ccccc3)cc2)NC1=O`, the inhibition entry is “inactive”.
Still for that read-out and setting: under `CC(C)C[C@@H]1NC(=O)[C@H](COCc2ccccc2)NC1=O` stands “inactive”.
Regarding `C[C@H]1NC(=O)[C@@H](Cc2ccc(OCc3ccccc3)cc2)NC1=O`, the inhibition entry was “inactive”.
Still for that read-out and setting: under `O=C1N[C@@H](Cc2ccc([N+](=O)[O-])cc2)C(=O)N[C@H]1Cc1ccc([N+](=O)[O-])cc1` stands “inactive”; under `C[C@H]1NC(=O)[C@@H](C)NC1=O`, “inactive”; under `O=C1N[C@@H](Cc2ccc(OCc3ccccc3)cc2)C(=O)N2CCC[C@@H]12`, “inactive”.

For a further series, the system named is Porphyromonas gingivalis. Put plainly: Antibiofilm activity against Porphyromonas gingivalis ATCC 33277 assessed as inhibition of biofilm formation up to 96 ug/mL after 24 hrs by crystal violet staining based assay. It counts as functional, organism-based.
For `CC(C)[C@@H]1NC(=O)[C@@H](Cc2ccc(OCc3ccccc3)cc2)NC1=O`, the inhibition entry was “inactive”.
Turning to `NCCCC[C@@H]1NC(=O)[C@H](Cc2ccccc2)NC1=O`, the inhibition result is “inactive”.
In the case of `C[C@@H](OCc1ccccc1)[C@@H]1NC(=O)[C@H]([C@@H](C)OCc2ccccc2)NC1=O`, the inhibition result is “inactive”.
In the case of `CC(C)C[C@@H]1NC(=O)[C@H](Cc2ccc(OCc3ccccc3)cc2)NC1=O`, the inhibition result was “inactive”.
Regarding `O=C1N[C@H](COCc2ccccc2)C(=O)N[C@@H]1COCc1ccccc1`, the inhibition entry is “inactive”.
For `O=C1CNC(=O)[C@H](Cc2ccccc2)N1`, the inhibition entry was “inactive”.
On to `O=C1CNC(=O)[C@H](CCC(=O)OCc2ccccc2)N1`, for which the inhibition result is “inactive”.
The same measure, in the same setting: the value for `O=C(NCCCC[C@@H]1NC(=O)[C@H](Cc2ccccc2)NC1=O)OCc1ccccc1` was “inactive”; that for `CC(C)C[C@H]1NC(=O)[C@H](C(C)C)NC1=O` was “inactive”; that for `O=C1[C@@H]2CCCN2C(=O)[C@H]2CCCN12` was “inactive”.
Take `O=C1N[C@H](Cc2ccccc2)C(=O)N[C@H]1COCc1ccccc1`: the inhibition entry was “inactive”.
Same read-out and setting: the value for `CC(C)C[C@@H]1NC(=O)[C@@H](CC(C)C)NC1=O` was “inactive”.
Still for that read-out and setting: the value for `CC(C)C[C@@H]1NC(=O)[C@H](Cc2ccc([N+](=O)[O-])cc2)NC1=O` was “inactive”; that for `C[C@@H]1NC(=O)[C@H](Cc2ccc(OCc3ccccc3)cc2)NC1=O` was “inactive”; that for `CC(C)C[C@@H]1NC(=O)[C@H](COCc2ccccc2)NC1=O` was “inactive”.
Turning to `C[C@H]1NC(=O)[C@@H](Cc2ccc(OCc3ccccc3)cc2)NC1=O`, the inhibition result is “inactive”.
In the case of `O=C1N[C@@H](Cc2ccc([N+](=O)[O-])cc2)C(=O)N[C@H]1Cc1ccc([N+](=O)[O-])cc1`, the inhibition result was “inactive”.
The same measure, in the same setting: under `C[C@H]1NC(=O)[C@@H](C)NC1=O` stands “inactive”.
Consider `O=C1N[C@@H](Cc2ccc(OCc3ccccc3)cc2)C(=O)N2CCC[C@@H]12`, for which the inhibition entry is “inactive”.

A further series concerns Streptococcus mutans. Kind of series: Antibiofilm activity against Streptococcus mutans ATCC 25175 assessed as inhibition of biofilm formation up to 96 ug/mL after 24 hrs by crystal violet staining-based assay. It counts as functional, organism-based.
Regarding `CC(C)[C@@H]1NC(=O)[C@@H](Cc2ccc(OCc3ccccc3)cc2)NC1=O`, the inhibition result was “inactive”.
Regarding `NCCCC[C@@H]1NC(=O)[C@H](Cc2ccccc2)NC1=O`, the inhibition entry is “inactive”.
For the molecule `C[C@@H](OCc1ccccc1)[C@@H]1NC(=O)[C@H]([C@@H](C)OCc2ccccc2)NC1=O`, the inhibition entry was “inactive”.
Still for that read-out and setting: under `CC(C)C[C@@H]1NC(=O)[C@H](Cc2ccc(OCc3ccccc3)cc2)NC1=O` stands “inactive”; under `O=C1N[C@H](COCc2ccccc2)C(=O)N[C@@H]1COCc1ccccc1`, “inactive”; under `O=C1CNC(=O)[C@H](Cc2ccccc2)N1`, “inactive”.
The same measure, in the same setting: under `O=C1CNC(=O)[C@H](CCC(=O)OCc2ccccc2)N1` stands “inactive”; under `O=C(NCCCC[C@@H]1NC(=O)[C@H](Cc2ccccc2)NC1=O)OCc1ccccc1`, “inactive”.
Still for that read-out and setting: the value for `CC(C)C[C@H]1NC(=O)[C@H](C(C)C)NC1=O` was “inactive”; that for `O=C1[C@@H]2CCCN2C(=O)[C@H]2CCCN12` was “inactive”; that for `O=C1N[C@H](Cc2ccccc2)C(=O)N[C@H]1COCc1ccccc1` was “inactive”.
With `CC(C)C[C@@H]1NC(=O)[C@@H](CC(C)C)NC1=O`, the inhibition entry was “inactive”.
Same read-out and setting: under `CC(C)C[C@@H]1NC(=O)[C@H](Cc2ccc([N+](=O)[O-])cc2)NC1=O` stands “inactive”; under `C[C@@H]1NC(=O)[C@H](Cc2ccc(OCc3ccccc3)cc2)NC1=O`, “inactive”.
The same measure, in the same setting: under `CC(C)C[C@@H]1NC(=O)[C@H](COCc2ccccc2)NC1=O` stands “inactive”.
The same measure, in the same setting: the value for `C[C@H]1NC(=O)[C@@H](Cc2ccc(OCc3ccccc3)cc2)NC1=O` was “inactive”; that for `O=C1N[C@@H](Cc2ccc([N+](=O)[O-])cc2)C(=O)N[C@H]1Cc1ccc([N+](=O)[O-])cc1` was “inactive”; that for `C[C@H]1NC(=O)[C@@H](C)NC1=O` was “inactive”.
For the molecule `O=C1N[C@@H](Cc2ccc(OCc3ccccc3)cc2)C(=O)N2CCC[C@@H]12`, the inhibition result is “inactive”.

For another series, the system named is Streptococcus mutans. Kind of series: Inhibition of planktonic growth of Streptococcus mutans ATCC 25175 up to 96 ug/mL after 24 hrs relative to control. It counts as organism-based.
As to `CC(C)[C@@H]1NC(=O)[C@@H](Cc2ccc(OCc3ccccc3)cc2)NC1=O`, the “growth inhibition (GI)” value is recorded as “Non-Toxic”.
Same read-out and setting: the value for `NCCCC[C@@H]1NC(=O)[C@H](Cc2ccccc2)NC1=O` was “Non-Toxic”.
Same read-out and setting: the value for `C[C@@H](OCc1ccccc1)[C@@H]1NC(=O)[C@H]([C@@H](C)OCc2ccccc2)NC1=O` was “Non-Toxic”.
Take `CC(C)C[C@@H]1NC(=O)[C@H](Cc2ccc(OCc3ccccc3)cc2)NC1=O`: the “growth inhibition (GI)” value is “Non-Toxic”.
With `O=C1N[C@H](COCc2ccccc2)C(=O)N[C@@H]1COCc1ccccc1`, the “growth inhibition (GI)” value is listed as “Non-Toxic”.
Still for that read-out and setting: under `O=C1CNC(=O)[C@H](Cc2ccccc2)N1` stands “Non-Toxic”; under `O=C1CNC(=O)[C@H](CCC(=O)OCc2ccccc2)N1`, “Non-Toxic”; under `O=C(NCCCC[C@@H]1NC(=O)[C@H](Cc2ccccc2)NC1=O)OCc1ccccc1`, “Non-Toxic”.
Same read-out and setting: the value for `CC(C)C[C@H]1NC(=O)[C@H](C(C)C)NC1=O` was “Non-Toxic”.
Consider `O=C1[C@@H]2CCCN2C(=O)[C@H]2CCCN12`, for which the “growth inhibition (GI)” value is on record as “Non-Toxic”.
Still for that read-out and setting: the value for `O=C1N[C@H](Cc2ccccc2)C(=O)N[C@H]1COCc1ccccc1` was “Non-Toxic”.
Same read-out and setting: the value for `CC(C)C[C@@H]1NC(=O)[C@@H](CC(C)C)NC1=O` was “Non-Toxic”.
On the same count and under the same terms, under `CC(C)C[C@@H]1NC(=O)[C@H](Cc2ccc([N+](=O)[O-])cc2)NC1=O` stands “Non-Toxic”.
For the molecule `C[C@@H]1NC(=O)[C@H](Cc2ccc(OCc3ccccc3)cc2)NC1=O`, the “growth inhibition (GI)” value is on record as “Non-Toxic”.
As to `CC(C)C[C@@H]1NC(=O)[C@H](COCc2ccccc2)NC1=O`, the “growth inhibition (GI)” value is recorded as “Non-Toxic”.
With `C[C@H]1NC(=O)[C@@H](Cc2ccc(OCc3ccccc3)cc2)NC1=O`, the “growth inhibition (GI)” value is on record as “Non-Toxic”.
For `O=C1N[C@@H](Cc2ccc([N+](=O)[O-])cc2)C(=O)N[C@H]1Cc1ccc([N+](=O)[O-])cc1`, the “growth inhibition (GI)” value is recorded as “Non-Toxic”.
The same measure, in the same setting: the value for `C[C@H]1NC(=O)[C@@H](C)NC1=O` was “Non-Toxic”; that for `O=C1N[C@@H](Cc2ccc(OCc3ccccc3)cc2)C(=O)N2CCC[C@@H]12` was “Non-Toxic”.
